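Method: 48-hour compound exposure of cells in 96-well plates, five concentrations, linear interpolation of endpoints. GI50 is the concentration that inhibits growth by half.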 Active and inactive are the calls of the source. Cut-off read from the data, not from the text of the source: active = GI50 up to about 1.1 µM and inactive = higher.

Among the test systems are SK-MEL-2; LOX IMVI; KM12; HL-60; CCRF-CEM; HCT-116; SF-539; SW-620; Hs-578T; NCI-H226; NCI-H460; K562; U-251; IGROV-1; SK-MEL-5; ACHN; OVCAR-8; A498; PC-3; SR.
Holding throughout (assay): DTP human tumour cell line panel, 48 h

Take `N=C(N)NC(=N)Nc1ccccc1.Sc1nc2ccccc2s1`: the GI50 in the assay on SK-MEL-2, in the assay on LOX IMVI, in the assay with KM12, with HL-60, with CCRF-CEM and with HCT-116 was > 100 µM (inactive) in each case. The GI50 in the assay on SF-539, in the assay with SW-620, in the assay on Hs-578T, in the assay with NCI-H226, with NCI-H460 and in the assay with K562 was > 100 µM (inactive) in each case. Moreover, the GI50 (usually the concentration that inhibits growth by half) in the assay on U-251 was > 100 µM (inactive); with IGROV-1, 70.5 µM (inactive); in the assay on SK-MEL-5, > 100 µM (inactive); with ACHN, > 100 µM (inactive); in the assay with OVCAR-8, > 100 µM (inactive); in the assay on A498, > 100 µM (inactive). Moreover, in the assay on PC-3, the GI50 is > 100 µM (inactive).
With `O=C1Cc2cc3ccccc3nc2-c2ccccc2N1`, the GI50 with SK-MEL-2 is > 100 µM (inactive); in the assay with LOX IMVI, 38.6 µM (inactive); with KM12, > 100 µM (inactive); with HL-60, > 100 µM (inactive); in the assay on CCRF-CEM, > 100 µM (inactive); with HCT-116, 23.9 µM (inactive). The GI50 was 69.7 µM (inactive) with SF-539; > 100 µM (inactive) with SW-620; 28.8 µM (inactive) in the assay with Hs-578T; > 100 µM (inactive) in the assay with NCI-H226; 63.7 µM (inactive) with NCI-H460; 39.9 µM (inactive) in the assay with K562. For the same compound, the GI50 with U-251 is 60 µM (inactive); in the assay on IGROV-1, > 100 µM (inactive); in the assay on SK-MEL-5 it was > 100 µM (inactive); in the assay with ACHN, 54.7 µM (inactive); in the assay with OVCAR-8, 35.3 µM (inactive); in the assay on A498 it was 61.5 µM (inactive). For the same compound, the GI50 in the assay on PC-3 was > 100 µM (inactive).
Take `COc1cc(C2c3cc(O)c(OC)cc3C3OCC2C3CO)ccc1O` (centres undefined): the GI50 is > 100 µM (inactive) in the assay on SK-MEL-2; > 100 µM (inactive) with LOX IMVI; > 100 µM (inactive) with KM12; > 100 µM (inactive) in the assay with HL-60; 76.9 µM (inactive) in the assay with HCT-116; > 100 µM (inactive) with SF-539. Also, the GI50 in the assay on SW-620, in the assay on SR, in the assay on NCI-H226, with NCI-H460, with K562 and in the assay with U-251 was > 100 µM (inactive) throughout. For the same compound, the GI50 with SK-MEL-5, in the assay with ACHN, in the assay with A498 and in the assay on PC-3 was > 100 µM (inactive) in each case.
Turning to `Cc1c(O)c(OC2OC(CO)C(O)C(O)C2O)cc2c1CC[C@@H]1C2(C)C(=O)C[C@]2(C)[C@@H]([C@@](C)(O)C3CCC(C)(C)O3)[C@H](O)C[C@@]12C` (some centres undefined), the GI50 in the assay on SK-MEL-2, with LOX IMVI, with KM12, in the assay on CCRF-CEM, with HCT-116 and in the assay on SF-539 was > 100 µM (inactive) throughout. Moreover, the GI50 in the assay with SW-620, with SR, in the assay with NCI-H226, in the assay with NCI-H460, in the assay with K562 and in the assay on U-251 was > 100 µM (inactive) in each case. Besides, the GI50 in the assay on IGROV-1, with SK-MEL-5, with ACHN, in the assay on OVCAR-8, in the assay with A498 and in the assay with PC-3 was > 100 µM (inactive) each time.
As for `COc1cc2c(cc1OC)[Se]c1cc(OC)c(OC)cc1[Se]2`, the GI50 is > 10 µM (inactive) with SK-MEL-2; 80 µM (inactive) in the assay on LOX IMVI; 6.15 µM (inactive) in the assay on KM12; 3.93 µM (inactive) in the assay with HL-60; > 10 µM (inactive) with CCRF-CEM; > 10 µM (inactive) in the assay on HCT-116. Moreover, the GI50 was 90.8 µM (inactive) with SF-539; > 10 µM (inactive) with SW-620; 4.74 µM (inactive) in the assay with SR; > 10 µM (inactive) in the assay on NCI-H226; > 10 µM (inactive) with NCI-H460; 6.64 µM (inactive) in the assay on K562. Besides, the GI50 with U-251, in the assay on IGROV-1, in the assay on SK-MEL-5, in the assay on ACHN, in the assay on OVCAR-8 and in the assay with A498 was > 10 µM (inactive) in each case.
With `CCOC(=O)/C=C1\c2ccccc2C(=O)N1CC(=O)OCC`, the GI50 with SK-MEL-2 is > 100 µM (inactive); with LOX IMVI, 75.5 µM (inactive); in the assay on KM12 it was > 100 µM (inactive); in the assay with CCRF-CEM, > 100 µM (inactive); in the assay on HCT-116 it was > 100 µM (inactive); in the assay with SW-620 it was > 100 µM (inactive). For the same compound, the GI50 with Hs-578T, in the assay with NCI-H226, in the assay on K562, in the assay with U-251, in the assay on IGROV-1 and in the assay on SK-MEL-5 was > 100 µM (inactive) each time. Also, the GI50 in the assay with ACHN, with OVCAR-8, in the assay with A498 and in the assay on PC-3 was > 100 µM (inactive) throughout.
For the compound `CC1=C(c2cc(C(=O)Nc3ccc(Cl)c(Cl)c3)nc(N)n2)Sc2ccccc2N1`, the GI50 in the assay with SK-MEL-2, in the assay with LOX IMVI, in the assay on KM12, in the assay with HL-60, in the assay on CCRF-CEM and in the assay on HCT-116 was > 100 µM (inactive) in each case. Moreover, the GI50 is > 100 µM (inactive) with SF-539; > 100 µM (inactive) in the assay with SW-620; > 100 µM (inactive) in the assay on SR; > 100 µM (inactive) with NCI-H226; > 100 µM (inactive) in the assay on NCI-H460; 62.5 µM (inactive) in the assay on K562. For the same compound, the GI50 in the assay on U-251, in the assay on IGROV-1, in the assay on SK-MEL-5, in the assay on ACHN, in the assay with OVCAR-8 and in the assay with A498 was > 100 µM (inactive) in each case.
`COc1ccc(OC)c2c(/C=C/c3ccc(N(C)C)cc3)ccnc12`: the GI50 in the assay with SK-MEL-2 was > 10 µM (inactive); with LOX IMVI it was 2.94 µM (inactive); in the assay on KM12, > 10 µM (inactive); with HL-60, 1.91 µM (inactive); in the assay on CCRF-CEM, 2.48 µM (inactive); in the assay on HCT-116, 3.53 µM (inactive). The GI50 in the assay on SF-539 was 2.77 µM (inactive); with SW-620, > 10 µM (inactive); in the assay with Hs-578T it was 8.15 µM (inactive); with NCI-H226, > 10 µM (inactive); in the assay on NCI-H460, 9.68 µM (inactive); with K562, > 10 µM (inactive). Besides, the GI50 was 5.31 µM (inactive) with U-251; > 10 µM (inactive) with IGROV-1; > 10 µM (inactive) with SK-MEL-5; 4.68 µM (inactive) with ACHN; > 10 µM (inactive) in the assay on OVCAR-8; > 10 µM (inactive) with A498. The GI50 with PC-3 was > 10 µM (inactive).
For the compound `Cc1oc2nc(N(C)C)nc(NN)c2c1C`, the GI50 in the assay on SK-MEL-2, with KM12, in the assay with HL-60, in the assay with CCRF-CEM, with HCT-116 and in the assay with SF-539 was > 100 µM (inactive) in each case. Also, the GI50 with SW-620, in the assay with Hs-578T, with NCI-H226, in the assay on NCI-H460, in the assay with K562 and in the assay with U-251 was > 100 µM (inactive) each time. The GI50 in the assay on IGROV-1, in the assay on SK-MEL-5, in the assay with ACHN, in the assay on OVCAR-8, in the assay with A498 and in the assay with PC-3 was > 100 µM (inactive) throughout.
Regarding `CN1c2ccccc2C2c3c(O)ccc(O)c3C=C([N+](=O)[O-])C21` (centres undefined), the GI50 with SK-MEL-2 was 1.98 µM (inactive); in the assay on LOX IMVI, 0.407 µM (active); in the assay on KM12, 0.39 µM (active); with HL-60, 0.684 µM (active); with CCRF-CEM it was 1.04 µM (active); with HCT-116, 0.205 µM (active). The GI50 in the assay on SF-539 was 1.44 µM (inactive); in the assay with SW-620 it was 0.406 µM (active); in the assay on SR it was 0.569 µM (active); in the assay with NCI-H226 it was 16.2 µM (inactive); in the assay on NCI-H460, 1.9 µM (inactive); in the assay on K562 it was 0.497 µM (active). Moreover, the concentration for 50% growth inhibition (GI50) with U-251 is 0.65 µM (active); with IGROV-1, 0.492 µM (active); with SK-MEL-5 it was 0.548 µM (active); in the assay with ACHN, 0.679 µM (active); with OVCAR-8, 0.286 µM (active); in the assay on A498 it was 1.79 µM (inactive). Moreover, the GI50 with PC-3 was 0.388 µM (active).
In the case of `CC(C)Cn1cnc2c(Sc3c([N+](=O)[O-])ncn3C)nc(N)nc21`, the GI50 with SK-MEL-2 was 22 µM (inactive); with LOX IMVI, > 59.8 µM (inactive); with KM12, > 100 µM (inactive); in the assay on HL-60, 30.3 µM (inactive); with CCRF-CEM it was 38.6 µM (inactive); with HCT-116, > 60.1 µM (inactive). In addition, the GI50 with SF-539 is > 23.7 µM (inactive); in the assay with SW-620, > 61.5 µM (inactive); in the assay with SR, 38.7 µM (inactive); in the assay with NCI-H226, > 100 µM (inactive); in the assay on NCI-H460, > 63 µM (inactive); in the assay with K562 it was > 47.3 µM (inactive). Also, the GI50 in the assay with U-251 is > 87.1 µM (inactive); with IGROV-1 it was > 47.5 µM (inactive); in the assay with SK-MEL-5, 15.2 µM (inactive); in the assay on ACHN, > 63.8 µM (inactive); in the assay on OVCAR-8 it was > 61.4 µM (inactive); with A498, > 100 µM (inactive). In addition, in the assay with PC-3, the GI50 is 26.1 µM (inactive).

For the origin of these results see ChEMBL document CHEMBL1201862, “PubChem BioAssay data set” (2004).
